Source: patent publication US20120149080A1, “YEAST PRODUCTION CULTURE FOR THE PRODUCTION OF BUTANOL” (Butamax(TM) Advanced Biofuels LLC, priority 2010, published 2012)

How the values were obtained:
[1] = tested on: Saccharomyces cerevisiae BY4743; assay: Glucose utilization rate in high cell density culture in YPD; type: cell-based
Description: Saccharomyces cerevisiae BY4743 was plated from a freezer vial onto YPD agar (Teknova, Hollister, Calif.; Cat. #Y1000) and incubated overnight at 30° C. Cells from the YPD plate were inoculated into a 25 ml pre-culture of YPD broth (Teknova, Hollister, Calif.; Cat. #Y5000) with an initial OD600 of 0.06 to 0.08, and this culture was grown for 7 hours in an air shaker at 30° C. An aliquot of the pre-culture was inoculated into 200 ml of YPD broth with an initial OD600 of 0.06 to 0.08, and this culture was incubated with aeration at 30° C. for approximately 17 hours. The optical density of the culture was determined, the culture was centrifuged and the cells were resuspended in fresh YPD broth to yield an OD600 of 8. […] Time of addition of cells was referred to as 0 hours. At various times, samples (1.5 ml) were withdrawn and centrifuged at 10,000 rpm for 2 minutes in a microfuge (Sorvall Biofuge pico). […] YSI, Inc., Yellow Springs, Ohio). Glucose consumption rates in the presence of isobutanol were also determined when the cell concentration was 18 gdcw/L or 24 gdcw/L. Cells from the YPD plate were inoculated into a 25 ml pre-culture of YPD broth (Teknova, Hollister, Calif. Cat. #Y5000) with an initial OD600 of 0.06 to 0.08, and this culture was grown for 7 hours in an air shaker at 30° C. […] The optical density of the culture was determined, the culture was centrifuged and the cells were resuspended in fresh YPD broth to yield an OD600 of 38 (18 gdcw/L). […] The experiment was repeated except that the starting OD600 was 49.1 (24 gdcw/L). […] The results for BY4743 are graphed in FIG. 4.

S. cerevisiae PNY0569 = assay: Glucose utilization rate under non-growing conditions in buffer; type: cell-based, Saccharomyces cerevisiae; conditions: PNY0569, 20 g/L isobutanol
Description: (§1) Isobutanol production may or may not be coupled to growth. Therefore we measured the glucose consumption rates under non-growing conditions using three different pH buffers.
(§2) Glucose consumption rates were determined in phosphate buffer pH 6.5 as outlined by Diderich, J. A., et al., Microbiology, 1999, 145 p. 3447-54. We also determined the glucose consumption rates at pH 5.25 and pH 4.0 using MES buffer.
(§3) Cells were grown overnight at 30° C. in YPD (125 ml in a 500 ml flask). Cells were centrifuged and resuspended in buffer (0.1M phosphate buffer pH 6.0 or 0.1M MES buffer pH 5.25 or 0.1M MES buffer pH 4.0), washed one time, and then resuspended such that each cell suspension had approximately 16 OD or 160 million cell/ml. 10 ml of these stock cells were transferred to flasks containing 10 ml of the corresponding buffer containing 40 g/L glucose and varying concentrations of isobutanol. At various times samples (500 to 700 ul) were transferred to a tube containing an equal volume of 10% TCA. Samples were centrifuged and glucose determined in the YSI glucose analyzer. Glucose consumption rates were determined by plotting the amount of glucose consumed over time.

S. cerevisiae PNY0602 = assay: as above; type: cell-based, Saccharomyces cerevisiae; conditions: PNY0602, 20 g/L isobutanol
Description: as §1, §2, §3

S. cerevisiae PNY0614 = assay: as above; type: cell-based, Saccharomyces cerevisiae; conditions: PNY0614, 20 g/L isobutanol
Description: as §1, §2, §3

[2] = 1.5% isobutanol, 3.8 and 24 gdcw/L cultures

CC(C)CO [Isobutanol, isobutanol]
calculated rate of glucose utilization ([1]; 1% isobutanol, high cell density cultures): at least 1.4 gram per gdcw per hour | glucose consumption rate [1, 2]: about 1.1 g/gdcw/h | glucose consumption rate, % of the control rate [1, 2]: approximately 50% | rate of glucose utilization ([1]; 1.5% isobutanol, 3.8 gdcw/L and 24 gdcw/L cultures): at least 1 gram per gdcw per hour | rate of glucose utilization ([1]; 2% isobutanol, high cell density cultures): at least 0.5 gram per gdcw per hour | rate of glucose utilization ([1]; 2.5% isobutanol, high cell density cultures): at least 0.4 gram per gdcw per hour | rate of glucose utilization ([1]; 3% isobutanol, high cell density cultures): at least 0.2 gram per gdcw per hour | Glucose Utilization (g/gdcw/h) (S. cerevisiae PNY0569; pH 4, non-growing): 0.7 g/gdcw/h | Glucose Utilization (g/gdcw/h) (S. cerevisiae PNY0569; pH 5.25, non-growing): 0.8 g/gdcw/h | Glucose Utilization (g/gdcw/h) (S. cerevisiae PNY0569; pH 6.5, non-growing): 0.6 g/gdcw/h | Glucose Utilization (g/gdcw/h) (S. cerevisiae PNY0602; pH 4, non-growing): 0.9 g/gdcw/h | Glucose Utilization (g/gdcw/h) (S. cerevisiae PNY0602; pH 5.25, non-growing): 1.1 g/gdcw/h | Glucose Utilization (g/gdcw/h) (S. cerevisiae PNY0602; pH 6.5, non-growing): 0.7 g/gdcw/h | Glucose Utilization (g/gdcw/h) (S. cerevisiae PNY0614; pH 4, non-growing): 0.9 g/gdcw/h | Glucose Utilization (g/gdcw/h) (S. cerevisiae PNY0614; pH 5.25, non-growing): 1.1 g/gdcw/h | Glucose Utilization (g/gdcw/h) (S. cerevisiae PNY0614; pH 6.5, non-growing): 0.7 g/gdcw/h
